Converted amounts (≈) assume the structure as drawn. The source made the active and inactive calls. No cut-off for these calls is given here.
Columns and labels:
Bacillus cereus [1] = assay: Antibacterial activity against Bacillus cereus NCIM 2155 assessed as diameter of growth inhibition zone at 500 ug/ml after 20 hrs by agar disc diffusion method; assay type: functional; details: for zone of inhibition at 500 µg/mL: NCIM 2155, 20 h, read-out: DIZ
Bacillus cereus [2] = assay: Antibacterial activity against Bacillus cereus NCIM 2155 assessed as diameter of growth inhibition zone at 1000 ug/ml after 20 hrs by agar disc diffusion method; assay type: functional; details: for zone of inhibition at 1000 µg/mL: NCIM 2155, 20 h, read-out: DIZ
Staphylococcus aureus [3] = assay: Antibacterial activity against Staphylococcus aureus MTCC 4102 assessed as diameter of growth inhibition zone at 500 ug/ml after 20 hrs by agar disc diffusion method; assay type: functional
Staphylococcus aureus [4] = assay: Antibacterial activity against Staphylococcus aureus MTCC 4102 assessed as diameter of growth inhibition zone at 1000 ug/ml after 20 hrs by agar disc diffusion method; assay type: functional
Candida albicans [5] = assay: Antifungal activity against Candida albicans MTCC 183 assessed as diameter of growth inhibition zone at 500 ug/ml after 4 days by agar disc diffusion method; assay type: functional; details: for zone of inhibition at 500 µg/mL: MTCC 183, 96 h, read-out: DIZ
Candida albicans [6] = assay: Antifungal activity against Candida albicans MTCC 183 assessed as diameter of growth inhibition zone at 1000 ug/ml after 4 days by agar disc diffusion method; assay type: functional; details: for zone of inhibition at 1000 µg/mL: MTCC 183, 96 h, read-out: DIZ
Saccharomyces cerevisiae [7] = assay: Antifungal activity against Saccharomyces cerevisiae NCIM 3044 assessed as diameter of growth inhibition zone at 500 ug/ml after 4 days by agar disc diffusion method; assay type: functional
Saccharomyces cerevisiae [8] = assay: Antifungal activity against Saccharomyces cerevisiae NCIM 3044 assessed as diameter of growth inhibition zone at 1000 ug/ml after 4 days by agar disc diffusion method; assay type: functional
Escherichia coli [9] = assay: Antibacterial activity against Escherichia coli NCIM 2931 assessed as diameter of growth inhibition zone at 500 ug/ml after 20 hrs by agar disc diffusion method; assay type: functional; details: for zone of inhibition at 500 µg/mL: NCIM 2931, 20 h, read-out: DIZ
Escherichia coli [10] = assay: Antibacterial activity against Escherichia coli NCIM 2931 assessed as diameter of growth inhibition zone at 1000 ug/ml after 20 hrs by agar disc diffusion method; assay type: functional; details: for zone of inhibition at 1000 µg/mL: NCIM 2931, 20 h, read-out: DIZ
Pseudomonas aeruginosa [11] = assay: Antibacterial activity against Pseudomonas aeruginosa MTCC 4727 assessed as diameter of growth inhibition zone at 500 ug/ml after 20 hrs by agar disc diffusion method; assay type: functional; details: for zone of inhibition at 500 µg/mL: MTCC 4727, 20 h, read-out: DIZ
Pseudomonas aeruginosa [12] = assay: Antibacterial activity against Pseudomonas aeruginosa MTCC 4727 assessed as diameter of growth inhibition zone at 1000 ug/ml after 20 hrs by agar disc diffusion method; assay type: functional; details: for zone of inhibition at 1000 µg/mL: MTCC 4727, 20 h, read-out: DIZ
Candida albicans [13] = assay: Antifungal activity against Candida albicans MTCC 183 assessed as assessed as growth inhibition after 48 hrs by broth microdilution method; assay type: functional, organism-based; details: MTCC 183, 48 h
Saccharomyces cerevisiae [14] = assay: Antifungal activity against Saccharomyces cerevisiae NCIM 3044 assessed as growth inhibition after 48 hrs by broth microdilution method; assay type: functional, organism-based; details: NCIM 3044, 48 h

## Cn1cc(-c2cnc(N3CCC(C#N)CC3)c3nc(Cc4ccc(Cl)cc4Cl)[nH]c23)cn1
Bacillus cereus [1]
  diameter of the inhibition zone (DIZ): inactive
Bacillus cereus [2]
  diameter of the inhibition zone (DIZ): inactive
Staphylococcus aureus [3]
  diameter of the inhibition zone (DIZ): inactive
Staphylococcus aureus [4]
  diameter of the inhibition zone (DIZ): inactive
Candida albicans [5]
  diameter of the inhibition zone (DIZ): inactive
Candida albicans [6]
  diameter of the inhibition zone (DIZ): inactive
Saccharomyces cerevisiae [7]
  diameter of the inhibition zone (DIZ): inactive
Saccharomyces cerevisiae [8]
  diameter of the inhibition zone (DIZ): inactive
Escherichia coli [9]
  diameter of the inhibition zone (DIZ): inactive
Escherichia coli [10]
  diameter of the inhibition zone (DIZ): inactive
Pseudomonas aeruginosa [11]
  diameter of the inhibition zone (DIZ): inactive
Pseudomonas aeruginosa [12]
  diameter of the inhibition zone (DIZ): inactive

## N#CC1CCCN(c2ncc(-c3cccc(F)c3)c3[nH]c(CSc4ccccc4)nc23)C1 (stereo unspecified)
Bacillus cereus [1]
  diameter of the inhibition zone (DIZ): inactive
Bacillus cereus [2]
  diameter of the inhibition zone (DIZ): inactive
Staphylococcus aureus [3]
  diameter of the inhibition zone (DIZ): inactive
Staphylococcus aureus [4]
  diameter of the inhibition zone (DIZ): inactive
Candida albicans [5]
  diameter of the inhibition zone (DIZ): inactive
Candida albicans [6]
  diameter of the inhibition zone (DIZ): inactive
Saccharomyces cerevisiae [7]
  diameter of the inhibition zone (DIZ): inactive
Saccharomyces cerevisiae [8]
  diameter of the inhibition zone (DIZ): inactive
Escherichia coli [9]
  diameter of the inhibition zone (DIZ): inactive
Escherichia coli [10]
  diameter of the inhibition zone (DIZ): inactive
Pseudomonas aeruginosa [11]
  zone of inhibition at 500 µg/mL: 5.2 mm
Pseudomonas aeruginosa [12]
  zone of inhibition at 1000 µg/mL: 11 mm

## N#CC1CCCN(c2ncc(-c3cccc(F)c3)c3[nH]c(C4CCCCC4)nc23)C1 (stereo unspecified)
Bacillus cereus [1]
  diameter of the inhibition zone (DIZ): inactive
Bacillus cereus [2]
  diameter of the inhibition zone (DIZ): inactive
Staphylococcus aureus [3]
  diameter of the inhibition zone (DIZ): inactive
Staphylococcus aureus [4]
  diameter of the inhibition zone (DIZ): inactive
Candida albicans [5]
  diameter of the inhibition zone (DIZ): inactive
Candida albicans [6]
  diameter of the inhibition zone (DIZ): inactive
Saccharomyces cerevisiae [7]
  diameter of the inhibition zone (DIZ): inactive
Saccharomyces cerevisiae [8]
  diameter of the inhibition zone (DIZ): inactive
Escherichia coli [9]
  zone of inhibition at 500 µg/mL: 6 mm
Escherichia coli [10]
  zone of inhibition at 1000 µg/mL: 12.5 mm
Pseudomonas aeruginosa [11]
  diameter of the inhibition zone (DIZ): inactive
Pseudomonas aeruginosa [12]
  diameter of the inhibition zone (DIZ): inactive

## CC(C)(C)Cc1nc2c(N3CCCC(C#N)C3)ncc(-c3cccc(F)c3)c2[nH]1 (stereo unspecified)
Bacillus cereus [1]
  diameter of the inhibition zone (DIZ): inactive
Bacillus cereus [2]
  diameter of the inhibition zone (DIZ): inactive
Staphylococcus aureus [3]
  diameter of the inhibition zone (DIZ): inactive
Staphylococcus aureus [4]
  diameter of the inhibition zone (DIZ): inactive
Candida albicans [5]
  diameter of the inhibition zone (DIZ): inactive
Candida albicans [6]
  diameter of the inhibition zone (DIZ): inactive
Saccharomyces cerevisiae [7]
  diameter of the inhibition zone (DIZ): inactive
Saccharomyces cerevisiae [8]
  diameter of the inhibition zone (DIZ): inactive
Escherichia coli [9]
  diameter of the inhibition zone (DIZ): inactive
Escherichia coli [10]
  diameter of the inhibition zone (DIZ): inactive
Pseudomonas aeruginosa [11]
  diameter of the inhibition zone (DIZ): inactive
Pseudomonas aeruginosa [12]
  diameter of the inhibition zone (DIZ): inactive

## N#CC1CCCN(c2ncc(-c3cccc(F)c3)c3[nH]c(Cc4cc(F)ccc4F)nc23)C1 (stereo unspecified)
Bacillus cereus [1]
  diameter of the inhibition zone (DIZ): inactive
Bacillus cereus [2]
  diameter of the inhibition zone (DIZ): inactive
Staphylococcus aureus [3]
  diameter of the inhibition zone (DIZ): inactive
Staphylococcus aureus [4]
  diameter of the inhibition zone (DIZ): inactive
Candida albicans [5]
  diameter of the inhibition zone (DIZ): inactive
Candida albicans [6]
  diameter of the inhibition zone (DIZ): inactive
Saccharomyces cerevisiae [7]
  diameter of the inhibition zone (DIZ): inactive
Saccharomyces cerevisiae [8]
  diameter of the inhibition zone (DIZ): inactive
Escherichia coli [9]
  diameter of the inhibition zone (DIZ): inactive
Escherichia coli [10]
  diameter of the inhibition zone (DIZ): inactive
Pseudomonas aeruginosa [11]
  diameter of the inhibition zone (DIZ): inactive
Pseudomonas aeruginosa [12]
  diameter of the inhibition zone (DIZ): inactive

## CCC(CC)c1nc2c(N3CCCC(C#N)C3)ncc(-c3cccc(F)c3)c2[nH]1 (stereo unspecified)
Bacillus cereus [1]
  diameter of the inhibition zone (DIZ): inactive
Bacillus cereus [2]
  diameter of the inhibition zone (DIZ): inactive
Staphylococcus aureus [3]
  diameter of the inhibition zone (DIZ): inactive
Staphylococcus aureus [4]
  diameter of the inhibition zone (DIZ): inactive
Candida albicans [5]
  diameter of the inhibition zone (DIZ): inactive
Candida albicans [6]
  diameter of the inhibition zone (DIZ): inactive
Saccharomyces cerevisiae [7]
  diameter of the inhibition zone (DIZ): inactive
Saccharomyces cerevisiae [8]
  diameter of the inhibition zone (DIZ): inactive
Escherichia coli [9]
  diameter of the inhibition zone (DIZ): inactive
Escherichia coli [10]
  diameter of the inhibition zone (DIZ): inactive
Pseudomonas aeruginosa [11]
  diameter of the inhibition zone (DIZ): inactive
Pseudomonas aeruginosa [12]
  diameter of the inhibition zone (DIZ): inactive

## Cc1cccc(Cc2nc3c(N4CCCC(C#N)C4)ncc(-c4cccc(F)c4)c3[nH]2)c1 (stereo unspecified)
Bacillus cereus [1]
  diameter of the inhibition zone (DIZ): inactive
Bacillus cereus [2]
  diameter of the inhibition zone (DIZ): inactive
Staphylococcus aureus [3]
  diameter of the inhibition zone (DIZ): inactive
Staphylococcus aureus [4]
  diameter of the inhibition zone (DIZ): inactive
Candida albicans [5]
  zone of inhibition at 500 µg/mL: 6.8 mm
Candida albicans [6]
  zone of inhibition at 1000 µg/mL: 15 mm
Saccharomyces cerevisiae [7]
  diameter of the inhibition zone (DIZ): inactive
Saccharomyces cerevisiae [8]
  diameter of the inhibition zone (DIZ): inactive
Candida albicans [13]
  IC50: 206 µg/mL (≈ 485 µM)
  MIC: 404 µg/mL (≈ 950 µM)
Escherichia coli [9]
  diameter of the inhibition zone (DIZ): inactive
Escherichia coli [10]
  diameter of the inhibition zone (DIZ): inactive
Pseudomonas aeruginosa [11]
  zone of inhibition at 500 µg/mL: 6.2 mm
Pseudomonas aeruginosa [12]
  zone of inhibition at 1000 µg/mL: 13 mm

## N#CC1CCCN(c2ncc(-c3cccc(F)c3)c3[nH]c(COc4ccccc4)nc23)C1 (stereo unspecified)
Bacillus cereus [1]
  zone of inhibition at 500 µg/mL: 2.8 mm
Bacillus cereus [2]
  zone of inhibition at 1000 µg/mL: 6 mm
Staphylococcus aureus [3]
  diameter of the inhibition zone (DIZ): inactive
Staphylococcus aureus [4]
  diameter of the inhibition zone (DIZ): inactive
Candida albicans [5]
  diameter of the inhibition zone (DIZ): inactive
Candida albicans [6]
  diameter of the inhibition zone (DIZ): inactive
Saccharomyces cerevisiae [7]; NCIM 3044, 96 h, read-out: DIZ
  zone of inhibition at 500 µg/mL: 8.7 mm
Saccharomyces cerevisiae [8]; NCIM 3044, 96 h, read-out: DIZ
  zone of inhibition at 1000 µg/mL: 19 mm
Saccharomyces cerevisiae [14]
  IC50: 192 µg/mL (≈ 449 µM)
  MIC: 384 µg/mL (≈ 898 µM)
Escherichia coli [9]
  diameter of the inhibition zone (DIZ): inactive
Escherichia coli [10]
  diameter of the inhibition zone (DIZ): inactive
Pseudomonas aeruginosa [11]
  diameter of the inhibition zone (DIZ): inactive
Pseudomonas aeruginosa [12]
  diameter of the inhibition zone (DIZ): inactive

## Cn1cc(-c2cnc(N3CCC(C#N)CC3)c3nc(CCc4ccccc4)[nH]c23)cn1
Bacillus cereus [1]
  diameter of the inhibition zone (DIZ): inactive
Bacillus cereus [2]
  diameter of the inhibition zone (DIZ): inactive
Staphylococcus aureus [3]; MTCC 4102, 20 h, read-out: DIZ
  zone of inhibition at 500 µg/mL: 4.2 mm
Staphylococcus aureus [4]; MTCC 4102, 20 h, read-out: DIZ
  zone of inhibition at 1000 µg/mL: 10 mm
Candida albicans [5]
  zone of inhibition at 500 µg/mL: 12.3 mm
Candida albicans [6]
  zone of inhibition at 1000 µg/mL: 22 mm
Saccharomyces cerevisiae [7]
  diameter of the inhibition zone (DIZ): inactive
Saccharomyces cerevisiae [8]
  diameter of the inhibition zone (DIZ): inactive
Candida albicans [13]
  IC50: 73.7 µg/mL (≈ 179 µM)
  MIC: 195 µg/mL (≈ 475 µM)
Escherichia coli [9]
  zone of inhibition at 500 µg/mL: 5.4 mm
Escherichia coli [10]
  zone of inhibition at 1000 µg/mL: 12 mm
Pseudomonas aeruginosa [11]
  diameter of the inhibition zone (DIZ): inactive
Pseudomonas aeruginosa [12]
  diameter of the inhibition zone (DIZ): inactive

## N#CC1CCCN(c2ncc(-c3cccc(F)c3)c3[nH]c(CCc4ccccc4)nc23)C1 (stereo unspecified)
Bacillus cereus [1]
  zone of inhibition at 500 µg/mL: 6.7 mm
Bacillus cereus [2]
  zone of inhibition at 1000 µg/mL: 13 mm
Staphylococcus aureus [3]
  diameter of the inhibition zone (DIZ): inactive
Staphylococcus aureus [4]
  diameter of the inhibition zone (DIZ): inactive
Candida albicans [5]
  diameter of the inhibition zone (DIZ): inactive
Candida albicans [6]
  diameter of the inhibition zone (DIZ): inactive
Saccharomyces cerevisiae [7]
  diameter of the inhibition zone (DIZ): inactive
Saccharomyces cerevisiae [8]
  diameter of the inhibition zone (DIZ): inactive
Escherichia coli [9]
  diameter of the inhibition zone (DIZ): inactive
Escherichia coli [10]
  diameter of the inhibition zone (DIZ): inactive
Pseudomonas aeruginosa [11]
  diameter of the inhibition zone (DIZ): inactive
Pseudomonas aeruginosa [12]
  diameter of the inhibition zone (DIZ): inactive
